Experiment: xn = mol fraction of the nth substance listed
Details: Liquid; for mass density: 101.3 kPa; for viscosity: 101 kPa

CN(C)CCO [2-(N,N-dimethylamino)ethanol] + O
Details	mass density [kg/m3]	viscosity [mPa·s]
293.15 K, x1 = 0.0121	996.588	–
293.15 K, x1 = 0.0218	995.236	–
293.15 K, x1 = 0.0252	994.947	–
293.15 K, x1 = 0.0359	994.033	–
293.15 K, x1 = 0.0617	992.027	–
293.15 K, x1 = 0.1009	988.909	–
293.15 K, x1 = 0.2017	973.822	–
293.15 K, x1 = 0.3033	956.823	–
293.15 K, x1 = 0.4051	941.071	–
293.15 K, x1 = 0.5077	927.808	–
293.15 K, x1 = 0.6099	916.51	–
293.15 K, x1 = 0.7652	903.034	–
293.15 K, x1 = 0.895	894.185	–
293.15 K, x1 = 1	887.816	–
298.15 K, x1 = 0.0121	995.282	–
298.15 K, x1 = 0.0218	993.748	–
298.15 K, x1 = 0.0252	993.401	–
298.15 K, x1 = 0.0359	992.24	–
298.15 K, x1 = 0.0617	989.74	–
298.15 K, x1 = 0.1009	985.747	–
298.15 K, x1 = 0.2017	969.911	–
298.15 K, x1 = 0.3033	952.768	–
298.15 K, x1 = 0.4051	936.991	–
298.15 K, x1 = 0.5077	923.722	–
298.15 K, x1 = 0.6099	912.41	–
298.15 K, x1 = 0.7652	898.903	–
298.15 K, x1 = 0.895	889.991	–
298.15 K, x1 = 1	883.578	–
303.15 K, x1 = 0.0121	993.747	–
303.15 K, x1 = 0.0218	992.024	–
303.15 K, x1 = 0.0252	991.591	–
303.15 K, x1 = 0.0359	990.239	–
303.15 K, x1 = 0.0617	987.103	–
303.15 K, x1 = 0.1009	982.49	–
303.15 K, x1 = 0.2017	965.929	–
303.15 K, x1 = 0.3033	948.646	–
303.15 K, x1 = 0.4051	932.844	–
303.15 K, x1 = 0.5077	919.567	–
303.15 K, x1 = 0.6099	908.259	–
303.15 K, x1 = 0.7652	894.723	–
303.15 K, x1 = 0.895	885.767	–
303.15 K, x1 = 1	879.315	–
308.15 K, x1 = 0.0121	991.994	–
308.15 K, x1 = 0.0218	990.035	–
308.15 K, x1 = 0.0252	989.243	–
308.15 K, x1 = 0.0359	988.048	–
308.15 K, x1 = 0.0617	984.421	–
308.15 K, x1 = 0.1009	979.144	–
308.15 K, x1 = 0.2017	961.896	–
308.15 K, x1 = 0.3033	944.47	–
308.15 K, x1 = 0.4051	928.641	–
308.15 K, x1 = 0.5077	915.367	–
308.15 K, x1 = 0.6099	904.055	–
308.15 K, x1 = 0.7652	890.503	–
308.15 K, x1 = 0.895	881.507	–
308.15 K, x1 = 1	875.017	–
313.15 K, x1 = 0.0121	989.83	–
313.15 K, x1 = 0.0218	987.566	–
313.15 K, x1 = 0.0252	986.624	–
313.15 K, x1 = 0.0359	985.713	–
313.15 K, x1 = 0.0617	981.605	–
313.15 K, x1 = 0.1009	975.714	2.669
313.15 K, x1 = 0.2017	957.808	5.071
313.15 K, x1 = 0.3033	940.237	6.593
313.15 K, x1 = 0.4051	924.379	6.58
313.15 K, x1 = 0.5077	911.114	5.885
313.15 K, x1 = 0.6099	899.803	4.784
313.15 K, x1 = 0.7652	886.233	3.467
313.15 K, x1 = 0.895	877.213	2.72
313.15 K, x1 = 1	870.686	2.238
318.15 K, x1 = 0.0121	986.678	–
318.15 K, x1 = 0.0218	985.311	–
318.15 K, x1 = 0.0359	983.206	–
318.15 K, x1 = 0.0617	978.661	–
318.15 K, x1 = 0.1009	972.197	–
318.15 K, x1 = 0.2017	953.663	–
318.15 K, x1 = 0.3033	935.946	–
318.15 K, x1 = 0.4051	920.062	–
318.15 K, x1 = 0.5077	906.806	–
318.15 K, x1 = 0.6099	895.501	–
318.15 K, x1 = 0.7652	881.923	–
318.15 K, x1 = 0.895	872.876	–
318.15 K, x1 = 1	866.316	–
323.15 K, x1 = 0.0617	975.591	–
323.15 K, x1 = 0.1009	968.595	1.957
323.15 K, x1 = 0.2017	949.451	3.487
323.15 K, x1 = 0.3033	931.598	4.435
323.15 K, x1 = 0.4051	915.685	4.433
323.15 K, x1 = 0.5077	902.436	4.044
323.15 K, x1 = 0.6099	891.144	3.393
323.15 K, x1 = 0.7652	877.562	2.573
323.15 K, x1 = 0.895	868.495	2.089
323.15 K, x1 = 1	861.902	1.756
328.15 K, x1 = 0.0617	972.399	–
328.15 K, x1 = 0.1009	964.905	–
328.15 K, x1 = 0.2017	945.194	–
328.15 K, x1 = 0.3033	927.188	–
328.15 K, x1 = 0.4051	911.247	–
328.15 K, x1 = 0.5077	898.016	–
328.15 K, x1 = 0.6099	886.733	–
328.15 K, x1 = 0.7652	873.15	–
328.15 K, x1 = 0.895	864.065	–
328.15 K, x1 = 1	857.46	–
333.15 K, x1 = 0.0617	969.09	–
333.15 K, x1 = 0.1009	961.13	1.499
333.15 K, x1 = 0.2017	940.864	2.511
333.15 K, x1 = 0.3033	922.714	3.091
333.15 K, x1 = 0.4051	906.75	3.126
333.15 K, x1 = 0.5077	893.531	2.897
333.15 K, x1 = 0.6099	882.262	2.503
333.15 K, x1 = 0.7652	868.68	1.969
333.15 K, x1 = 0.895	859.595	1.641
333.15 K, x1 = 1	852.965	1.413
338.15 K, x1 = 0.0617	965.663	–
338.15 K, x1 = 0.1009	957.253	–
338.15 K, x1 = 0.2017	936.472	–
338.15 K, x1 = 0.3033	918.174	–
338.15 K, x1 = 0.4051	902.184	–
338.15 K, x1 = 0.5077	888.98	–
338.15 K, x1 = 0.6099	877.726	–
338.15 K, x1 = 0.7652	864.16	–
338.15 K, x1 = 0.895	855.072	–
338.15 K, x1 = 1	848.423	–
343.15 K, x1 = 0.0617	961.835	–
343.15 K, x1 = 0.1009	953.308	1.186
343.15 K, x1 = 0.2017	932.014	1.896
343.15 K, x1 = 0.3033	913.564	2.27
343.15 K, x1 = 0.4051	897.541	2.302
343.15 K, x1 = 0.5077	884.364	2.152
343.15 K, x1 = 0.6099	873.127	1.909
343.15 K, x1 = 0.7652	859.582	1.551
343.15 K, x1 = 0.895	850.491	1.317
343.15 K, x1 = 1	843.844	1.156
348.15 K, x1 = 0.0617	957.228	–
348.15 K, x1 = 0.1009	949.273	–
348.15 K, x1 = 0.2017	927.488	–
348.15 K, x1 = 0.3033	908.868	–
348.15 K, x1 = 0.4051	892.846	–
348.15 K, x1 = 0.5077	879.677	–
348.15 K, x1 = 0.6099	868.45	–
348.15 K, x1 = 0.7652	854.939	–
348.15 K, x1 = 0.895	845.858	–
348.15 K, x1 = 1	839.205	–
353.15 K, x1 = 0.0617	952.666	–
353.15 K, x1 = 0.1009	945.149	0.966
353.15 K, x1 = 0.2017	922.889	1.47
353.15 K, x1 = 0.3033	904.132	1.724
353.15 K, x1 = 0.4051	888.074	1.75
353.15 K, x1 = 0.5077	874.926	1.65
353.15 K, x1 = 0.6099	863.729	1.493
353.15 K, x1 = 0.7652	850.236	1.247
353.15 K, x1 = 0.895	841.163	1.078
353.15 K, x1 = 1	834.521	0.963
358.15 K, x1 = 0.0617	950.878	–
358.15 K, x1 = 0.1009	940.935	–
358.15 K, x1 = 0.2017	918.216	–
358.15 K, x1 = 0.3033	899.314	–
358.15 K, x1 = 0.4051	883.233	–
358.15 K, x1 = 0.5077	870.101	–
358.15 K, x1 = 0.6099	858.928	–
358.15 K, x1 = 0.7652	845.484	–
358.15 K, x1 = 0.895	836.414	–
358.15 K, x1 = 1	829.779	–
363.15 K, x1 = 0.0617	946.398	–
363.15 K, x1 = 0.1009	936.638	–
363.15 K, x1 = 0.2017	913.472	–
363.15 K, x1 = 0.3033	894.425	–
363.15 K, x1 = 0.4051	878.314	–
363.15 K, x1 = 0.5077	865.197	–
363.15 K, x1 = 0.6099	854.052	–
363.15 K, x1 = 0.7652	840.646	–
363.15 K, x1 = 0.895	831.596	–
363.15 K, x1 = 1	824.969	–
